Measurements taken from ChEMBL document CHEMBL4308841, “Synthesis, in vitro antiproliferative activity, and kinase inhibitory effects of pyrazole-containing diarylureas and diarylamides” (Eur J Med Chem, 2018).

How the values were obtained:
[1] = target: Mitogen-activated protein kinase 1 (Homo sapiens) (UniProt P28482); experiment: Inhibition of human ERK2 at 10 uM using myelin basic protein as substrate after 40 mins in presence of [gamma33P]ATP by scintillation counting method relative to control
[2] = target: PI3-kinase p110-alpha/p85-alpha (Homo sapiens) (UniProt P27986+P42336); experiment: Inhibition of human PI3K p110a/p85a at 10 uM using PI(4,5)P2:PS as substrate after 40 mins in presence of [gamma33P]ATP by scintillation counting method relative to control; type: protein-complex assay
[3] = test system: RAW264.7; experiment: Cytotoxicity against mouse RAW264.7 cells by MTT assay; type: cell-based
[4] = test system: HOP-92; experiment: Growth inhibition of human HOP92 cells assessed as cell growth at 1 uM incubated for 48 hrs by sulforhodamine B assay relative to control; type: functional; settings: HOP-92, 48 h, read-out: Activity
[5] = target: Epidermal growth factor receptor (Homo sapiens) (UniProt P00533); experiment: Inhibition of human EGFR at 10 uM using poly[Glu:Tyr] (4:1) as substrate after 40 mins in presence of [gamma33P]ATP by scintillation counting method relative to control
Epidermal growth factor receptor (Homo sapiens), sequence (P00533 whole entry): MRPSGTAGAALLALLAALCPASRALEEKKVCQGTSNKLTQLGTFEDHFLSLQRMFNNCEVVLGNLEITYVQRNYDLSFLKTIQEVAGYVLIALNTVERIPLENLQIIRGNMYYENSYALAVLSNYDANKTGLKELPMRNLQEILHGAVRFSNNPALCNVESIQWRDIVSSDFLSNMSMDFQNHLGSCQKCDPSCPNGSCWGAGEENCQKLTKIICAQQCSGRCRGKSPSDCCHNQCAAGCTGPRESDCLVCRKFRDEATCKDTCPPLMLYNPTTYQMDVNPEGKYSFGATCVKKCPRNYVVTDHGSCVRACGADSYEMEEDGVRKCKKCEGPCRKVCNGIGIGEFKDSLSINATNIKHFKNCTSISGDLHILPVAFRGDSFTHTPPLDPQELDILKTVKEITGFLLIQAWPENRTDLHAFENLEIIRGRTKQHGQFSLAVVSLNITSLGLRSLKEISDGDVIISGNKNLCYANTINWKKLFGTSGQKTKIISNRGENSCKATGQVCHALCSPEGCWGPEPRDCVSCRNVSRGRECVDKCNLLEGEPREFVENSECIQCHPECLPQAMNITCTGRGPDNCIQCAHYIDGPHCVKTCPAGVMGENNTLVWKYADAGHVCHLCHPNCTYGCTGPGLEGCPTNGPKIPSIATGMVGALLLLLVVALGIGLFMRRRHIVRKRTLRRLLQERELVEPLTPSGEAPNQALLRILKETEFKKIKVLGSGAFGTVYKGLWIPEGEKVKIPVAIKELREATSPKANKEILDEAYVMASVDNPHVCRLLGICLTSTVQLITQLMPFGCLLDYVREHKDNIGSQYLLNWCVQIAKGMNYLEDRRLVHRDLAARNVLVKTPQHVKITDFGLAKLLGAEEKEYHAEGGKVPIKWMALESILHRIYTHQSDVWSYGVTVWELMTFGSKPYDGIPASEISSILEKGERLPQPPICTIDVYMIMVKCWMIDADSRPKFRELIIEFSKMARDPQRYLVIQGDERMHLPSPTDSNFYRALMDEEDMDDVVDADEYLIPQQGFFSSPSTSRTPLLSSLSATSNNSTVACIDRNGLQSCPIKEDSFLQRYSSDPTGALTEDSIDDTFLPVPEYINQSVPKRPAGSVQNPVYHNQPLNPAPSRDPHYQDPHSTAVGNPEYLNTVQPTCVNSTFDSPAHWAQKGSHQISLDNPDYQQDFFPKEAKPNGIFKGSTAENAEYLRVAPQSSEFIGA

[6] = test system: TK-10; experiment: Growth inhibition of human TK10 cells assessed as cell growth at 0.1 uM incubated for 48 hrs by sulforhodamine B assay relative to control; type: functional; settings: TK-10, 48 h, read-out: Activity
[7] = test system: Serine/threonine-protein kinase B-raf (Homo sapiens), P15056 [V600E]; experiment: Inhibition of human BRAF V600E mutant at 10 uM using MEK1 (K97R) as substrate after 40 mins in presence of [gamma33P]ATP by scintillation counting method relative to control
Serine/threonine-protein kinase B-raf (Homo sapiens), P15056 [V600E], sequence (P15056 whole entry V600E): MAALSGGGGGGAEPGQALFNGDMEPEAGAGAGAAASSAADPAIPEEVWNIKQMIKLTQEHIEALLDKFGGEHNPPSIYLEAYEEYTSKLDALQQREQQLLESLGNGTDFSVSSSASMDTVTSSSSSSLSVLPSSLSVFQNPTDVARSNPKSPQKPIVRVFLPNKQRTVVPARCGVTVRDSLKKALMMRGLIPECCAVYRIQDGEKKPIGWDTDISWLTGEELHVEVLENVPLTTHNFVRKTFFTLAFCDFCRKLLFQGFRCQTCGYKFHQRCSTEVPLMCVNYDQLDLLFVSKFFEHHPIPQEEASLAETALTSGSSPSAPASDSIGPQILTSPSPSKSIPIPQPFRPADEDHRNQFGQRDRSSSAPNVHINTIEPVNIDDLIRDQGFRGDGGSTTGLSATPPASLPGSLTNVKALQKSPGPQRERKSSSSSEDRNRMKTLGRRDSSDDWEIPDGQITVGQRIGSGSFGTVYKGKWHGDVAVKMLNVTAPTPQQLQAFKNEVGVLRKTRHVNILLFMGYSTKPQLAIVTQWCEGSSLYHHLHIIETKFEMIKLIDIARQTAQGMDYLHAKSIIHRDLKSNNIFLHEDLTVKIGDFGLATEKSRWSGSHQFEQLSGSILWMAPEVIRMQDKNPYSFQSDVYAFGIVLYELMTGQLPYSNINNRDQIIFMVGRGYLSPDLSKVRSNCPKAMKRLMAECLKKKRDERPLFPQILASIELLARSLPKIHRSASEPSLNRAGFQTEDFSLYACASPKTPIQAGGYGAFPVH

[8] = target: Hepatocyte growth factor receptor (Homo sapiens) (UniProt P08581); experiment: Inhibition of human c-MET at 10 uM using KKKSPGEYVNIEFG as substrate after 40 mins in presence of [gamma33P]ATP by scintillation counting method relative to control
[9] = target: Receptor tyrosine-protein kinase erbB-4 (Homo sapiens) (UniProt Q15303); experiment: Inhibition of human ERBB4 at 10 uM using poly[Glu:Tyr] (4:1) as substrate after 40 mins in presence of [gamma33P]ATP by scintillation counting method relative to control
[10] = target: Tyrosine-protein kinase JAK2 (Homo sapiens) (UniProt O60674); experiment: Inhibition of human JAK2 at 10 uM using poly[Glu:Tyr] (4:1) as substrate after 40 mins in presence of [gamma33P]ATP by scintillation counting method relative to control
Tyrosine-protein kinase JAK2 (Homo sapiens), sequence (O60674 whole entry): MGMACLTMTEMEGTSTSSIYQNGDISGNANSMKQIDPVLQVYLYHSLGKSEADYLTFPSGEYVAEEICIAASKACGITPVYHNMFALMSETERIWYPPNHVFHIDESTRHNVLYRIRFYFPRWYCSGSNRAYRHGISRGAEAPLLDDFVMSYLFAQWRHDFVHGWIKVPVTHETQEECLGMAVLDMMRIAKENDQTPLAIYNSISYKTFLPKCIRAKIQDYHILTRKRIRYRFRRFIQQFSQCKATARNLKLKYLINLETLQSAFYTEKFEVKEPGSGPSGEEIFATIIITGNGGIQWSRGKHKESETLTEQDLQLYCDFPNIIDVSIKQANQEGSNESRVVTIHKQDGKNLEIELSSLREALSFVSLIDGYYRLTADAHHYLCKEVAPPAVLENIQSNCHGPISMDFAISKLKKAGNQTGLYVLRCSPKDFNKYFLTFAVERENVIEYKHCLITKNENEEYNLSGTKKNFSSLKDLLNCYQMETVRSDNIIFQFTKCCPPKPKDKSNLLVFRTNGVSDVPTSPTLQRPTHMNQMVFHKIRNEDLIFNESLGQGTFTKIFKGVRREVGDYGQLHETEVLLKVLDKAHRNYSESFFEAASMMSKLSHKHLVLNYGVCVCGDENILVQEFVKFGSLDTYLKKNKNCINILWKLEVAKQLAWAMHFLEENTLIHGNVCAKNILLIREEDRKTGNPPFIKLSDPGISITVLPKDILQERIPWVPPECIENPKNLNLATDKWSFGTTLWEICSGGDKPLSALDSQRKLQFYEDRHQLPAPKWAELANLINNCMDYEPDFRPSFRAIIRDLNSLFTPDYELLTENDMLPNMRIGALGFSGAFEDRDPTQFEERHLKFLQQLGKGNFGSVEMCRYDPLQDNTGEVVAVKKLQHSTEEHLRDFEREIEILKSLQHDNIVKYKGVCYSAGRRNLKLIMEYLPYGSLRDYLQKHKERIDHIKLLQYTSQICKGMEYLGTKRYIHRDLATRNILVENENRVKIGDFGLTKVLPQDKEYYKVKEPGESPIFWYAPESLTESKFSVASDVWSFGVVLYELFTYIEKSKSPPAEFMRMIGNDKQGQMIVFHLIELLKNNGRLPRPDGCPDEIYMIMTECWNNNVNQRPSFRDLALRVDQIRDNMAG

[11] = target: Mitogen-activated protein kinase 8 (Homo sapiens) (UniProt P45983); experiment: Inhibition of human JNK1 at 10 uM using ATF2 as substrate after 40 mins in presence of [gamma33P]ATP by scintillation counting method relative to control
[12] = test system: HOP-92; experiment: Growth inhibition of human HOP92 cells assessed as cell growth at 100 uM incubated for 48 hrs by sulforhodamine B assay relative to control; type: functional; settings: HOP-92, 48 h, read-out: Activity
[13] = target: Mast/stem cell growth factor receptor Kit (Homo sapiens) (UniProt P10721); experiment: Inhibition of human c-KIT at 10 uM using poly[Glu:Tyr] (4:1) as substrate after 40 mins in presence of [gamma33P]ATP by scintillation counting method relative to control
[14] = target: Serine/threonine-protein kinase B-raf (Homo sapiens) (UniProt P15056); experiment: Inhibition of human BRAF at 10 uM using MEK1 (K97R) as substrate after 40 mins in presence of [gamma33P]ATP by scintillation counting method relative to control
Serine/threonine-protein kinase B-raf (Homo sapiens), sequence (P15056 whole entry): as the sequence (P15056 whole entry V600E) above, with E600V counted along it

[15] = target: RAF proto-oncogene serine/threonine-protein kinase (Homo sapiens) (UniProt P04049); experiment: Inhibition of human c-RAF at 10 uM using MEK1 (K97R) as substrate after 40 mins in presence of [gamma33P]ATP by scintillation counting method relative to control
RAF proto-oncogene serine/threonine-protein kinase (Homo sapiens), sequence (P04049 whole entry): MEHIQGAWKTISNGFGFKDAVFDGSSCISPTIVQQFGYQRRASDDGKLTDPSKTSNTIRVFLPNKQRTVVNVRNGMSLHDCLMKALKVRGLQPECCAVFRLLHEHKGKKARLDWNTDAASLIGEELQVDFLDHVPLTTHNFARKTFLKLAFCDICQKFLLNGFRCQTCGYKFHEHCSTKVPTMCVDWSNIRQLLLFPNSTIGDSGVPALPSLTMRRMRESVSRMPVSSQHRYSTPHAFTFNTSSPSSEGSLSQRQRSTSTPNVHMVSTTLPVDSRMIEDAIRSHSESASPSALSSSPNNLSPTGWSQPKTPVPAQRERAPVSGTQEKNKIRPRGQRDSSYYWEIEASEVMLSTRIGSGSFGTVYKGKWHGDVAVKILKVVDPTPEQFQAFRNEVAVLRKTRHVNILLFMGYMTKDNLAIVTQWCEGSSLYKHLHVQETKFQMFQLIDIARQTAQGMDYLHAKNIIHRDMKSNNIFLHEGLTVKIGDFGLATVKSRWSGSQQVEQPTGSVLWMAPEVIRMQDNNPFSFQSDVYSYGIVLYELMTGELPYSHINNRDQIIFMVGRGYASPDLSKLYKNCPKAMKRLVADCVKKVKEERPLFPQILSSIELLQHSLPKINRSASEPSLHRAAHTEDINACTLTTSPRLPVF

[16] = test system: TK-10; experiment: Growth inhibition of human TK10 cells incubated for 48 hrs by sulforhodamine B assay; type: functional, cell-based; settings: TK-10, 48 h
[17] = target: Mitogen-activated protein kinase 14 (Homo sapiens) (UniProt Q16539); experiment: Inhibition of human p38alpha at 10 uM using myelin basic protein as substrate after 40 mins in presence of [gamma33P]ATP by scintillation counting method relative to control
[18] = test system: HOP-92; experiment: Growth inhibition of human HOP92 cells incubated for 48 hrs by sulforhodamine B assay; type: functional, cell-based; settings: HOP-92, 48 h
[19] = target: Dual specificity mitogen-activated protein kinase kinase 1 (Homo sapiens) (UniProt Q02750); experiment: Inhibition of human MEK1 at 10 uM using ERK2 (K52R) as substrate after 40 mins in presence of [gamma33P]ATP by scintillation counting method relative to control
Dual specificity mitogen-activated protein kinase kinase 1 (Homo sapiens), sequence (Q02750 whole entry): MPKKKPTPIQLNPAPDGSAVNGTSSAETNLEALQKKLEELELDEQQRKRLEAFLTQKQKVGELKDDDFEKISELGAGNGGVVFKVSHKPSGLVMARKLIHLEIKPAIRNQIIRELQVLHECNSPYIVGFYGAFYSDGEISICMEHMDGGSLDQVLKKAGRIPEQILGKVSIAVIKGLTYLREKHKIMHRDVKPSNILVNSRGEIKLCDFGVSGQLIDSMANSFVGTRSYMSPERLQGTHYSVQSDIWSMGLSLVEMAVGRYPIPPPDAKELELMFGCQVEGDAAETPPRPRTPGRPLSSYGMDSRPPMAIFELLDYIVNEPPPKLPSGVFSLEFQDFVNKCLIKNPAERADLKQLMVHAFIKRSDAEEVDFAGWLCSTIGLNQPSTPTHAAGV

[20] = test system: RPMI-8226; experiment: Induction of apoptosis in human RPMI8226 cells assessed as increase in caspase 3/7 level at 10 uM relative to control; type: functional
[21] = target: RAC-alpha serine/threonine-protein kinase (Homo sapiens) (UniProt P31749); experiment: Inhibition of human AKT1 at 10 uM using KGSGSGRPRTSSFAEG as substrate after 40 mins in presence of [gamma33P]ATP by scintillation counting method relative to control
[22] = target: Fibroblast growth factor receptor 1 (Homo sapiens) (UniProt P11362); experiment: Inhibition of human FGFR1 at 10 uM using KKKSPGEYVNIEFG as substrate after 40 mins in presence of [gamma33P]ATP by scintillation counting method relative to control
[23] = target: Serine/threonine-protein kinase B-raf (Homo sapiens, UniProt P15056, V600E); experiment: Inhibition of human BRAF V600E mutant using MEK1 (K97R) as substrate after 40 mins in presence of [gamma33P]ATP by scintillation counting method
Serine/threonine-protein kinase B-raf, sequence (P15056 2-766 V600E limits assumed): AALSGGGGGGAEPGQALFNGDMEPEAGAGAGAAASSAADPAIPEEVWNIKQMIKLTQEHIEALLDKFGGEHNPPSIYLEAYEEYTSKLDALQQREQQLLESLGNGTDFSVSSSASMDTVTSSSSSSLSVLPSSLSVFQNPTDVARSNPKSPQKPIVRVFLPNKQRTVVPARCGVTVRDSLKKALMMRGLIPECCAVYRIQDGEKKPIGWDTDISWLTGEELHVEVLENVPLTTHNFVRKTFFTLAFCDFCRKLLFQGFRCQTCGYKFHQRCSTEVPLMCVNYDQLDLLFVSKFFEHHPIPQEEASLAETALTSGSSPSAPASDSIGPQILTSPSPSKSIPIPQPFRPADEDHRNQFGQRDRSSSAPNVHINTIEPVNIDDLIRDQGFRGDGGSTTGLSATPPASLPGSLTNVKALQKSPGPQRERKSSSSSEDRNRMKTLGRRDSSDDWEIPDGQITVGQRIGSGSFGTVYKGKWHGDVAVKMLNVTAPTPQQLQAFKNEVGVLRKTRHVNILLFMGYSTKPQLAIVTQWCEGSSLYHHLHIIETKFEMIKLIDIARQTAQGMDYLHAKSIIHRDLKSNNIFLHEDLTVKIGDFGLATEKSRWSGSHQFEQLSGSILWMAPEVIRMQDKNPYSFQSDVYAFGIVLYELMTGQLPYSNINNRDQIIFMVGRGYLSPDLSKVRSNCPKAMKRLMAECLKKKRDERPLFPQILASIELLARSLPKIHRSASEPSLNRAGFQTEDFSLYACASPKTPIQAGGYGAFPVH

[24] = read-out: LC50 (the source's name)
[25] = read-out: pLC50 (the source's name) (converted)

`COc1cc(Cl)cc(-c2nn(-c3cccc(NC(=O)Nc4cc(C(F)(F)F)cc(C(F)(F)F)c4)c3)cc2-c2ccncc2)c1` was tested, and the inhibition [1] was -8.66%, the inhibition [2] was 16.8% and the IC50 [3] was > 100000 nM. The growth at 1 µM [4] was -10%, the inhibition [5] was -7.47% and the growth at 0.1 µM [6] was 90%. The inhibition [7] was 94.7%, the inhibition [8] was 5.66% and the inhibition [9] was 0.9%. It also gave an inhibition [10] of -2.88%, an inhibition [11] of 2.27% and a growth at 100 µM [12] of -77%. It also gave an inhibition [13] of 1.25%, an inhibition [14] of 39.1% and an inhibition [15] of 57.8%. For the same molecule, the IC50 [16] was 680 nM, the GI50 ([16]; read-out: GI50) was 654 nM and the CC50 [16, 24] was 42.5 nM. It also gave a TGI ([16]; read-out: TGI) of 14600 nM, a GI50 ([16]; read-out: pGI50 (converted)) of 708 nM and a CC50 [16, 25] of 42700 nM. For the same molecule, the TGI ([16]; read-out: pTGI (converted)) was 14800 nM, the inhibition [17] was -5.41% and the IC50 [18] was 230 nM. For the same molecule, the GI50 ([18]; read-out: GI50) was 228 nM, the CC50 [18, 24] was 2010 nM and the TGI ([18]; read-out: TGI) was 780 nM. For the same molecule, the GI50 ([18]; read-out: pGI50 (converted)) was 229 nM, the CC50 [18, 25] was 20000 nM and the TGI ([18]; read-out: pTGI (converted)) was 776 nM. The inhibition [19] was -7.99%, the “fold change (FC)” value [20] was 2.79 and the inhibition [21] was -5.92%. For the same molecule, the inhibition [22] was -1.71% and the IC50 [23] was 390 nM.
